The target of the assay is TdT (Bos taurus, UniProt P06526). Description: Screen of nucleotides and nucleotide analogues as substrates for TdT-based DNA synthesis. The assay is classed as biochemical. Conditions: for behavior with respect to TdT-based DNA synthesis (extension efficiency, rate, and extension length distribution): natural nucleotides compared with each other; for efficiency as substrates of TdT compared to natural counterparts: analogues more positively charged than natural counterparts. An excerpt: Nucleotide analogues may be used as substrates for enzymatic synthesis using TdT. In the general scheme of the presently disclosed methods, the distribution of extension length by TdT is important to ensure efficient and reliable encoding of information into DNA.
These analogues include, but are not limited to, 5-Aminoallyl-dUTP and 5-Propargylamino-dUTP.

Chain of TdT (P06526 whole entry): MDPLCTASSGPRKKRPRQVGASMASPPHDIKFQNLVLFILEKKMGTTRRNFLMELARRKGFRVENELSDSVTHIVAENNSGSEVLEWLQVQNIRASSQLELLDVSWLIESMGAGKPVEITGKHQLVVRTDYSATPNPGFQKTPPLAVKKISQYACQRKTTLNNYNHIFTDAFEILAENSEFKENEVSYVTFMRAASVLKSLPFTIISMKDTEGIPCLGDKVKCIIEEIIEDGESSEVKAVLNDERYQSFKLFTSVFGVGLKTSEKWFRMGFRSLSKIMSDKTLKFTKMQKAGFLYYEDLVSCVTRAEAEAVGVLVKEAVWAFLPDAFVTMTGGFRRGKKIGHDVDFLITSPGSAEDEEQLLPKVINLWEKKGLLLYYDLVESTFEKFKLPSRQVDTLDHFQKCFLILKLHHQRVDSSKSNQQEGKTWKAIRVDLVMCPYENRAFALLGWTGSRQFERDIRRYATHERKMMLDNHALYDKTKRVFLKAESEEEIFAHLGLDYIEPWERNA

Turning to `Nc1nc2c(ncn2[C@H]2C[C@H](O)[C@@H](COP(=O)(O)OP(=O)(O)OP(=O)(O)O)O2)c(=O)[nH]1` [dGTP], the “behavior with respect to TdT-based DNA synthesis (extension efficiency, rate, and extension length distribution)” value (shortened to “behavior”) was “poorest behavior”.
On to `NC/C=C/c1cn(C2CC(O)C(COP(=O)(O)OP(=O)(O)OP(=O)(O)O)O2)c(=O)[nH]c1=O` (centres unmarked) [5-Aminoallyl-dUTP], for which the “efficiency as substrates of TdT compared to natural counterparts” value is listed as “far more efficient substrates of TdT”.
`NCC#Cc1cn(C2CC(O)C(COP(=O)(O)OP(=O)(O)OP(=O)(O)O)O2)c(=O)[nH]c1=O` (centres unmarked) [5-Propargylamino-dUTP]: the “efficiency as substrates of TdT compared to natural counterparts” value is listed as “far more efficient substrates of TdT”.
As for `Nc1ncnc2c1ncn2[C@H]1C[C@H](O)[C@@H](COP(=O)(O)OP(=O)(O)OP(=O)(O)O)O1` [dATP], the “behavior” value was “poorest behavior”.
Consider `Nc1ccn([C@H]2C[C@H](O)[C@@H](COP(=O)(O)OP(=O)(O)OP(=O)(O)O)O2)c(=O)n1` [dCTP], for which the “behavior” value is “most optimal behavior”.

Source of the values: patent US10745814B2, “Enzymatic nucleic acid synthesis” (President and Fellows of Harvard College, priority 2016, dated 2020).
